In the SangsterLogP compilation:

Tests used:
[1] = not given; remark: listed apart in the source
[2] = not given; remark: listed apart in the source
[3] = not given; remark: listed apart in the source
[4] = method code SF-AS, from DOI: 10.1248/cpb.32.4084, PMID: 6099228; conditions: pH 7.4
[5] = not given; remark: listed apart in the source
[6] = not given; remark: listed apart in the source
[7] = not given; remark: listed apart in the source
[8] = not given; remark: listed apart in the source
[9] = method code SF-HPLC, from DOI: 10.1021/jm00112a026, PMID: 1875345; conditions: pH 7.4
[10] = method code SF-HPLC, from PMID: 1515051; conditions: pH 6.0
[11] = not given; remark: listed apart in the source
[12] = method code SF-AS, from THAKUR, B.; Mehta, U.; TIPNIS, P. (1981). Ortho effect in partition coefficients of some o-benzyloxybenzamides. Indian J Pharm Sci, 43(6)224-226.
[13] = method code SF-AS/HPLC, from Ellington, J. J. (1988). Octanol/water partition coefficients for evaluation of hazardous waste land disposal: Selected chemicals. US Environmental Protection Agency, Environmental Research …
[14] = method code SF-AS, from DOI: 10.1023/a:1016392123137, PMID: 24272811
[15] = not given; remark: listed apart in the source
[16] = method code SF-HPLC, from DOI: 10.1002/ps.2780170106
[17] = not given; remark: listed apart in the source
[18] = method code SF, from DOI: 10.1021/jm00114a024, PMID: 1920362
[19] = not given; remark: listed apart in the source
[20] = not given; remark: listed apart in the source
[21] = method code SF-ESR, from DOI: 10.1515/znc-1987-7-832, PMID: 2961152
[22] = not given; remark: listed apart in the source
[23] = method code SF-HPLC, from DOI: 10.1016/j.ejpb.2006.11.002, PMID: 17182232; conditions: pH 7.4
[24] = not given; remark: listed apart in the source
[25] = not given; remark: listed apart in the source
[26] = method code SF-AS, from DOI: 10.1248/cpb.32.5003, PMID: 6534549
[27] = method code SF-AS, from Schaper, J. (1979). Simultaneous determination of electronic and lipophilic properties of acids and bases by nonlinear regression analysis of pH-dependent partition measurements. J. Chem. Research …
[28] = method code SF-AS, from Busch, N.; Moleyre, J.; Bondivenne, R.; Labrid, C. (1973). Study of the predictive value of the Hansch correlation equations for a series of beta-alkoxy-beta-phenylethyl pyrrolidines. Chimica …
[29] = method code RP-HPLC, from DOI: 10.2166/wqrj.1987.010; conditions: pH 7.0
[30] = not given; remark: listed apart in the source
[31] = method code SF-HPLC, from DOI: 10.1023/a:1015924724973, PMID: 2762226; conditions: pH 7.4
[32] = not given; remark: listed apart in the source
[33] = from Sparatore, F.; Grieco, C.; Silipo, C.; Vittoria, A. (1979). Use of regression analysis to correlate auxin activity with chemical physical and structural properties of benzotriazole derivatives. III. …; conditions: pH 5.6
[34] = method code SF, from DOI: 10.1023/a:1016286026462, PMID: 8570535
[35] = method code SF-HPLC, from DOI: 10.1016/j.ejpb.2012.12.004, PMID: 23262162
[36] = method code SF, from DOI: 10.1021/jm00237a002, PMID: 1133810; conditions: pH 7.2

Work on `S=C=Nc1ccc(-c2ccc(N=C=S)cc2)cc1` yielded a logP of 5.5.

`Clc1ccccc1-c1ccccc1Cl` showed a logP [1] of 4.8.

With `Nc1ccc(S(=O)(=O)Nc2ccc(S(N)(=O)=O)cc2)cc1` the logP [2] was 0.35.

`Cc1ccc(Cl)c(NS(=O)(=O)c2nc(C)n(-c3ncccn3)n2)c1Cl` gave a logP [3] of 3.

In the case of `COc1ccc(NC(=O)CN2CCCCC2)cc1`, the logD [4] is reported as 2.52.

Work on `CC(C)(C)NC(=O)[C@@H]1CN(Cc2cccnc2)CCN1C[C@@H](O)C[C@@H](Cc1ccccc1)C(=O)N[C@H]1c2ccccc2C[C@H]1O` yielded a logP [5] of 2.79.

In the case of `COC(=O)[C@H]1CSC(c2nc3ccc(O)cc3s2)=N1`, the logP [6] is reported as 2.23.

`Clc1cc2oc3cc(Cl)c(Cl)c(Cl)c3c2cc1Cl` gave a logP [7] of 6.7.

In the case of `Clc1cccc2c1Oc1ccccc1O2`, the logP [8] is reported as 4.75.

Work on `OC(CN1C2C3CCC(C3)C21)Cn1ccnc1` (stereo not drawn) yielded a logD [9] of 1.6.

For `CCOC(=O)n1c(-c2cscn2)nc2ccccc21`, the logD [10] was 2.51.

`CCC1(CC)C(=O)NC(=O)N=C1OC(C)C` gave a logP [11] of 1.86.

With `Cc1ccc(COc2ccccc2C(N)=O)cc1` the logP [12] was 1.86.

`O=[N+]([O-])c1cc(C2CCCCC2)c(O)c([N+](=O)[O-])c1` gave a logP [13] of 4.12.

Work on `Cc1ccc2ccc3ccc(C)nc3c2n1` yielded a logP [14] of 2.46.

In the case of `CCC(CC)(C(N)=O)c1ccc2c(c1)OCO2`, the logP [15] is reported as 1.59.

`N#CCCOc1cccc2ccccc12` showed a logD ([16]; pH 6.4) of 2.8.

Compound `O=C(CN1CCCCC1)Nc1ccc(Cl)c(Cl)c1` has a logD [4] of 3.65.

`c1ccc2[nH]c(SCCC3CCCCC3)nc2c1` showed a logP [17] of 4.5.

Compound `CC(C)COC(=O)n1c(-c2cscn2)nc2ccccc21` has a logD [10] of 3.46.

Work on `CNCCN(C)S(=O)(=O)c1ccc(CONC(N)=O)c([N+](=O)[O-])c1` yielded a logP [18] of 0.45.

Work on `Clc1ccccc1C(c1ccccc1)(c1ccccc1)n1ccnc1` yielded a logP [19] of 4.75.

Compound `CNC(=O)Oc1cc(C)c(N(C)C)c(C)c1` has a logP [20] of 2.56.

In the case of `CC1(C)CC(NC(=O)N(CCCl)N=O)CC(C)(C)N1[O]`, the logP [21] is reported as 1.6.

`S=C=NCc1ccc2ccccc2c1` gave a logP of 4.42.

For `Clc1cc2oc3c(Cl)c(Cl)c(Cl)cc3c2cc1Cl`, the logP [7] was 6.31.

`Clc1ccc(-c2ccc(Cl)c(Cl)c2)cc1Cl` gave a logP [22] of 6.04.

`CN1C(C(=O)Nc2ccccn2)=C(O)c2sccc2S1(=O)=O` showed a logP [5] of 1.9.

With `CCOC(=O)C(NC(=O)c1cccnc1)n1cc(F)c(=O)[nH]c1=O` (stereo not drawn) the logD [23] was 0.21.

Compound `c1ccc2c(c1)ccc1cc3ccc4ccccc4c3nc12` has a logP [24] of 6.42.

`Cc1ccc2c(N)nc(-c3ccccn3)cc2c1` gave a logD ([14]; pH 6.0) of 3.04.

In the case of `c1ccc2c(c1)Cc1ccccc1-2`, the logP [24] is reported as 4.2.

Compound `CCOP(=S)(OCC)SCSc1ccc(Cl)cc1` has a logP [20] of 4.53.

Compound `CCOP(=O)(Sc1ccccc1)Sc1ccccc1` has a logP [25] of 3.68.

`CCC1(c2ccccc2)C(=O)NC(=O)N(C(C)C)C1=O` (stereo not drawn) showed a logP [11] of 2.58.

With `O=C(Cc1ccccc1)Nc1ccccc1O` the logP [26] was 2.4.

Work on `CCOC(=O)C1CCC2C(C1)N2CC(O)Cn1ccnc1` (stereo not drawn) yielded a logD [9] of 1.13.

For `O=C(O)CCOc1cccc2ccccc12`, the logD ([16]; pH 2.0) was 3.

`Cc1ccc(NS(=O)(=O)c2ccc(N)cc2)cc1` showed a logP [27] of 2.11.

Compound `C/C=C(/C)C(=O)O[C@H]1CCN2CC=C(COC(=O)[C@@](O)([C@H](C)OC)C(C)(C)O)[C@H]12` has a logP [13] of 1.28.

Work on `NC(=O)c1ccccc1OCc1ccc([N+](=O)[O-])cc1` yielded a logP [12] of 1.73.

In the case of `COC(CN1CCCC1)c1ccccc1` (stereo not drawn), the logP [28] is reported as 1.88.

`c1ccc(Cc2nc3ccccc3[nH]2)cc1` showed a logP [17] of 4.16.

`COc1ccc2nc(C3=N[C@@H](C(=O)O)CS3)sc2c1` gave a logP [6] of 1.16.

Compound `CN(C)CCN(C)S(=O)(=O)c1ccc(C(C)(C)[N+](=O)[O-])c([N+](=O)[O-])c1` has a logP [18] of 1.42.

For `CNC(=O)Oc1cccc2c1OC(C)(C)C2`, the logD [29] was 1.88.

Compound `Clc1cc2c(c(Cl)c1Cl)Oc1c(Cl)c(Cl)c(Cl)c(Cl)c1O2` has a logP [8] of 8.2.

For `CN(C)c1ccc(NS(=O)(=O)c2ccc(N)cc2)cc1`, the logP [27] was 1.57.

For `c1ccc2c(c1)ccc1ccccc12`, the logP [30] was 4.69.

In the case of `CS(=O)(=O)c1ccc([C@@H](O)[C@@H](CO)NC(=O)C(Cl)Cl)cc1`, the logP [19] is reported as 0.15.

With `CC(C)OP(=O)(OC(C)C)SCc1ccccc1` the logP [25] was 3.43.

`N[C@@H](Cc1ccc(O)c(O)c1)C(=O)OCCCCO` showed a logD [31] of -0.46.

Compound `Clc1cc(Cl)c(-c2cc(Cl)c(Cl)c(Cl)c2Cl)cc1Cl` has a logP [30] of 7.15.

Compound `CCCc1nc(S(=O)(=O)Nc2c(F)cccc2F)nn1-c1ccccc1` has a logP [3] of 4.2.

`CN1CC(NC(=O)CSC(=O)c2ccccc2)CC2c3cccc4[nH]cc(c34)CC21` (stereo not drawn) gave a logP [32] of 1.9.

`OCCCCCCn1nc2ccccc2n1` gave a logD [33] of 2.26.

For `Oc1cc(Cl)ccc1Oc1ccc(Cl)cc1Cl`, the logP [34] was 4.53.

`CC1(C)CC(NC(=O)N(CCCl)N=O)C(C)(C)[N+]1(C)[O-]` (stereo not drawn) gave a logP [21] of 1.64.

For `COC(=O)C(NC(=O)c1cccnc1)n1cc(F)c(=O)[nH]c1=O` (stereo not drawn), the logD [23] was -0.12.

For `O=C(Cc1ccccc1)Nc1ccccc1F`, the logP [26] was 2.62.

Work on `Cc1c(C)c2c(c(C)c1O)CCC(C)(C(=O)O)O2` (stereo not drawn) yielded a logP [35] of 2.61.

`Brc1cc(Br)cc(-c2cc(Br)cc(Br)c2)c1` showed a logP [22] of 7.41.

With `CCc1cnc(NS(=O)(=O)c2ccccc2)nc1` the logD [36] was 0.88.

Compound `Nc1ccc(S(=O)(=O)Nc2ccccc2)cc1` has a logP [2] of 1.55.

In the case of `CCCCOC(=O)[C@@H](N)Cc1ccc(O)c(O)c1`, the logD [31] is reported as 1.19.

Work on `COc1ccc(C=CC(=O)OCCC(C)C)cc1` yielded a logP [34] of 4.83.

`OCCCCCn1nnc2ccccc21` showed a logD [33] of 1.51.

`Clc1ccc(-c2ccc(Cl)cc2Cl)cc1` showed a logP [1] of 5.62.

For `C=CCC(CC=C)(C(N)=O)c1ccc2c(c1)OCO2`, the logP [15] was 2.1.

Compound `Cc1cc(Cl)ccc1OCC(=O)OCCCCCC(C)C` has a logD [29] of 6.69.

`CCN(CC)CCSCc1ccccc1` gave a logP [32] of 2.66.

With `CCOc1cnc(NS(=O)(=O)c2ccccc2)nc1` the logD [36] was 0.53.

In the case of `OC(CN1CCCC1)c1ccccc1` (stereo not drawn), the logP [28] is reported as 1.38.
